Measured values: patent publication US11207312B2, “Metallo-beta-lactamase inhibitors and methods of use thereof” (priority 2017, dated 2021)

Assays:
[1] = tested on: Serratia marcescens expressing IMP-1 (CL5741); assay type: cell-based; conditions: with imipenem 1 μg/ml; 95% inhibition of bacterial growth
Summary of the method: (§1)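 Clinical MBL-producing strains were grown overnight at 35 °C on blood agar, suspended in saline, diluted 1:100 into 1.1× CAMHB and exposed to test compound with imipenem at 1 μg/ml. After 22–24 h at 35 °C, absorbance gave MITC95: lowest compound concentration inhibiting 95% of growth.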

[2] = tested on: Klebsiella pneumoniae expressing VIM-1 (IHMA599644); assay type: cell-based; conditions: with imipenem 1 μg/ml; 95% inhibition of bacterial growth
Summary of the method: as §1

[3] = tested on: Escherichia coli expressing NDM-1 (CLB30016); assay type: cell-based; conditions: with imipenem 1 μg/ml; 95% inhibition of bacterial growth
Summary of the method: as §1

NDM-1 = NDM-1 (Klebsiella pneumoniae, UniProt C7C422); assay: biochemical; assay type: biochemical; conditions: CCF2-FA fluorescence assay, 2 hours at 25° C.
Summary of the method: (§2)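 In 100 mM phosphate pH 7 containing Tween-20 and ZnSO4, NDM-1 (1 pM), IMP-1 (2 pM) or VIM-1 (30 pM) hydrolysed 1.25 μM CCF2-FA over 2 hours at 25° C with inhibitor present. Readout was 405/460 nm fluorescence.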

[4] = tested on: P. aeruginosa MB9798 (efflux+, IMP-1 plasmid); conditions: for MB9798 MITC95 P. aeruginosa uM Efflux WT: efflux + (MB9798) strain, imipenem at 2 μg/mL, in the presence of a class A, C, D serine β-lactamase inhibitor closely related to relebactam; for Efflux ratio: fold difference between efflux+ (MB9798) and efflux− (MB9799) strains
Summary of the method: (§3)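 Isogenic P. aeruginosa PAO1 strains (efflux+ and multiple-efflux-pump-disrupted) carrying plasmid IMP-1, with inducible AmpC, tested by broth microdilution. Imipenem and/or ceftazidime fixed, usually at CLSI breakpoint, plus fixed class A/C β-lactamase inhibitor; titrated MBL inhibitor concentration restoring susceptibility recorded and compared between strains as efflux fold difference.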

[5] = tested on: P. aeruginosa MB9799 (efflux-, IMP-1 plasmid); assay type: cell-based, Pseudomonas aeruginosa; conditions: efflux − (MB9799) strain; imipenem at 2 μg/mL; in the presence of a class A, C, D serine β-lactamase inhibitor closely related to relebactam
Summary of the method: as §3

VIM-2 = VIM-2 (Escherichia coli, UniProt Q5U7L7); assay: biochemical; conditions: CCF2-FA fluorescence assay; read-out: VIM2 IC50
IMP-1 = IMP-1 (Serratia marcescens, UniProt P52699); assay: biochemical; conditions: CCF2-FA fluorescence assay, 2 hours at 25° C.; read-out: IMP1 IC50
Summary of the method: as §2

VIM-1 = VIM-1 (Pseudomonas aeruginosa (strain ATCC 15692 / DSM 22644 / CIP 104116 / JCM 14847 / LMG 12228 / 1C / PRS 101 / PAO1), UniProt A0A0F7KYQ8); assay: biochemical; conditions: CCF2-FA fluorescence assay, 2 hours at 25° C.; read-out: VIM1 IC50
Summary of the method: as §2

Chain of IMP-1 (P52699 whole entry, looked up, species assumed): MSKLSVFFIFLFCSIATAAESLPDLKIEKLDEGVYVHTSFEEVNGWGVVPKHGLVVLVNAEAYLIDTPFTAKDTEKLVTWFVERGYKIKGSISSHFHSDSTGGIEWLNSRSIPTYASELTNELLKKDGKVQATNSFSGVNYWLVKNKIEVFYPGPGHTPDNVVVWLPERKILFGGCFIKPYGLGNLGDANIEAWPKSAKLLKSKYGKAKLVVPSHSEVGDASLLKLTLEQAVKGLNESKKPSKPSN
Chain of NDM-1 (C7C422 whole entry, looked up, species assumed): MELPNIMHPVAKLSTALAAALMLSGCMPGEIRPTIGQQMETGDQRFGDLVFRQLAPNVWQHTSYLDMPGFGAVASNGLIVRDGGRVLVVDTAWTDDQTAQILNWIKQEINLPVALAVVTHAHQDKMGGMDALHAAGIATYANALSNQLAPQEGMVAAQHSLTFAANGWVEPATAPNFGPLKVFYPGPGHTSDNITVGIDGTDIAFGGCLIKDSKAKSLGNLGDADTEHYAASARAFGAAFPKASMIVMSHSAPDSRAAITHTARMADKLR

## COC1(CO)CCN(c2ccc(S(=O)(=O)N[C@H](C)CN)c(S(N)(=O)=O)c2-c2nn[nH]n2)CC1 [Example 19, (R)-N1-(1-aminopropan-2-yl)-4-(4-(hydroxymethyl)-4-methoxypiperidin-1-yl)-3-(2H-tetrazol-5-yl)benzene-1,2-disulfonamide]
[1]
  CL5741 S. marcescens MITC95 IMP: 3.13 µM
[2]
  IHMA599644 K. pneumoniae MITC95 VIM: 12.50 µM
[3]
  CLB30016 E. coli MITC95 NDM: 3.13 µM
NDM-1
  IC50: 0.17 nM
[4]
  MB9798 MITC95 P. aeruginosa uM Efflux WT: 3.13 µM
  Efflux ratio: 1.00
[5]
  MB9799 MITC95 P. aeruginosa uM Efflux Mutant: 3.13 µM
VIM-2
  IC50: 2.27 nM
IMP-1
  IC50: 0.37 nM
VIM-1
  IC50: 0.65 nM

## NC[C@@H](O)CNS(=O)(=O)c1ccc(N2CCOC(CO)C2)c(-c2nn[nH]n2)c1S(N)(=O)=O (stereo partly drawn) [Example 20, N^1—((R)-3-amino-2-hydroxypropyl)-4-(2-(hydroxymethyl)morpholino)-3-(2H-tetrazol-5-yl)benzene-1,2-disulfonamide]
[1]
  CL5741 S. marcescens MITC95 IMP: 0.78 µM
[2]
  IHMA599644 K. pneumoniae MITC95 VIM: 3.13 µM
[3]
  CLB30016 E. coli MITC95 NDM: 1.56 µM
NDM-1
  IC50: 0.77 nM
[4]
  MB9798 MITC95 P. aeruginosa uM Efflux WT: 3.13 µM
  Efflux ratio: 4.00
[5]
  MB9799 MITC95 P. aeruginosa uM Efflux Mutant: 0.78 µM
VIM-2
  IC50: 0.49 nM
IMP-1
  IC50: 1.53 nM
VIM-1
  IC50: 0.26 nM

## COC1(CO)CCN(c2ccc(S(=O)(=O)NC[C@H](O)CN)c(S(N)(=O)=O)c2-c2nn[nH]n2)CC1 [Example 21, (R)-N^1-(3-amino-2-hydroxypropyl)-4-(4-(hydroxymethyl)-4-methoxypiperidin-1-yl)-3-(2H-tetrazol-5-yl)benzene-1,2-disulfonamide]
[1]
  CL5741 S. marcescens MITC95 IMP: 6.25 µM
[2]
  IHMA599644 K. pneumoniae MITC95 VIM: 12.50 µM
[3]
  CLB30016 E. coli MITC95 NDM: 12.50 µM
NDM-1
  IC50: 0.41 nM
[4]
  MB9798 MITC95 P. aeruginosa uM Efflux WT: 3.13 µM
  Efflux ratio: 1.00
[5]
  MB9799 MITC95 P. aeruginosa uM Efflux Mutant: 3.13 µM
VIM-2
  IC50: 2.7 nM
IMP-1
  IC50: 0.56 nM
VIM-1
  IC50: 1.13 nM

## NC[C@@H](O)CNS(=O)(=O)c1ccc(N2CCC(F)(CO)CC2)c(-c2nn[nH]n2)c1S(N)(=O)=O [Example 22, (R)-N^1-(3-amino-2-hydroxypropyl)-4-(4-fluoro-4-(hydroxymethyl)piperidin-1-yl)-3-(2H-tetrazol-5-yl)benzene-1,2-disulfonamide]
[1]
  CL5741 S. marcescens MITC95 IMP: 1.56 µM
[2]
  IHMA599644 K. pneumoniae MITC95 VIM: 6.25 µM
[3]
  CLB30016 E. coli MITC95 NDM: 3.13 µM
NDM-1
  IC50: 0.45 nM
[4]
  MB9798 MITC95 P. aeruginosa uM Efflux WT: 1.56 µM
  Efflux ratio: 1.00
[5]
  MB9799 MITC95 P. aeruginosa uM Efflux Mutant: 1.56 µM
VIM-2
  IC50: 0.79 nM
IMP-1
  IC50: 0.7 nM
VIM-1
  IC50: 0.35 nM

## NC[C@@H](O)CNS(=O)(=O)c1ccc(N2CCCN(CCO)CC2)c(-c2nn[nH]n2)c1S(N)(=O)=O [Example 23, (R)-N^1-(3-amino-2-hydroxypropyl)-4-(4-(2-hydroxyethyl)-1,4-diazepan-1-yl)-3-(2H-tetrazol-5-yl)benzene-1,2-disulfonamide]
[1]
  CL5741 S. marcescens MITC95 IMP: 1.56 µM
[2]
  IHMA599644 K. pneumoniae MITC95 VIM: 0.78 µM
[3]
  CLB30016 E. coli MITC95 NDM: 0.39 µM
NDM-1
  IC50: 19.7 nM
[4]
  MB9798 MITC95 P. aeruginosa uM Efflux WT: 3.13 µM
  Efflux ratio: 2.00
[5]
  MB9799 MITC95 P. aeruginosa uM Efflux Mutant: 1.56 µM
VIM-2
  IC50: 10 nM
IMP-1
  IC50: 40.5 nM
VIM-1
  IC50: 1.48 nM

## NCCC1CCN(c2ccc(S(=O)(=O)NC[C@H](O)CN)c(S(N)(=O)=O)c2-c2nn[nH]n2)CC1 [Example 24, (R)-N^1-(3-amino-2-hydroxypropyl)-4-(4-(2-aminoethyl)piperidin-1-yl)-3-(2H-tetrazol-5-yl)benzene-1,2-disulfonamide]
[1]
  CL5741 S. marcescens MITC95 IMP: 3.13 µM
[2]
  IHMA599644 K. pneumoniae MITC95 VIM: 6.25 µM
[3]
  CLB30016 E. coli MITC95 NDM: 1.56 µM
NDM-1
  IC50: 5.09 nM
[4]
  MB9798 MITC95 P. aeruginosa uM Efflux WT: 1.56 µM
  Efflux ratio: 1.00
[5]
  MB9799 MITC95 P. aeruginosa uM Efflux Mutant: 1.56 µM
VIM-2
  IC50: 5.6 nM
IMP-1
  IC50: 5.79 nM
VIM-1
  IC50: 0.45 nM

## NC[C@@H](O)CNS(=O)(=O)c1ccc(N2CCC(CC(N)=O)CC2)c(-c2nn[nH]n2)c1S(N)(=O)=O [Example 25, (R)-2-(1-(4-(N-(3-amino-2-hydroxypropyl)sulfamoyl)-3-sulfamoyl-2-(2H-tetrazol-5-yl)phenyl)piperidin-4-yl)acetamide]
[1]
  CL5741 S. marcescens MITC95 IMP: 6.25 µM
[2]
  IHMA599644 K. pneumoniae MITC95 VIM: 6.25 µM
[3]
  CLB30016 E. coli MITC95 NDM: 3.13 µM
NDM-1
  IC50: 0.54 nM
[4]
  MB9798 MITC95 P. aeruginosa uM Efflux WT: 3.13 µM
  Efflux ratio: 1.00
[5]
  MB9799 MITC95 P. aeruginosa uM Efflux Mutant: 3.13 µM
VIM-2
  IC50: 0.74 nM
IMP-1
  IC50: 0.39 nM
VIM-1
  IC50: 0.17 nM

## NC[C@@H](O)CNS(=O)(=O)c1ccc(N2CCC(CCn3cccn3)CC2)c(-c2nn[nH]n2)c1S(N)(=O)=O [Example 27, (R)-4-(4-(2-(1H-pyrazol-1-yl)ethyl)piperidin-1-yl)-N^1-(3-amino-2-hydroxypropyl)-3-(2H-tetrazol-5-yl)benzene-1,2-disulfonamide]
[1]
  CL5741 S. marcescens MITC95 IMP: 3.13 µM
[2]
  IHMA599644 K. pneumoniae MITC95 VIM: 6.25 µM
[3]
  CLB30016 E. coli MITC95 NDM: 3.13 µM
NDM-1
  IC50: 0.07 nM
[4]
  MB9798 MITC95 P. aeruginosa uM Efflux WT: 25.00 µM
  Efflux ratio: 15.99
[5]
  MB9799 MITC95 P. aeruginosa uM Efflux Mutant: 1.56 µM
VIM-2
  IC50: 0.18 nM
IMP-1
  IC50: 0.05 nM
VIM-1
  IC50: 0.06 nM

## NS(=O)(=O)c1c(S(=O)(=O)C2CNC2)ccc(N2CCC(O)CC2)c1-c1nnn[nH]1 [Example 31, 6-(azetidin-3-ylsulfonyl)-3-(4-hydroxypiperidin-1-yl)-2-(1H-tetrazol-5-yl)benzenesulfonamide]
[1]
  CL5741 S. marcescens MITC95 IMP: 3.13 µM
[2]
  IHMA599644 K. pneumoniae MITC95 VIM: 3.13 µM
[3]
  CLB30016 E. coli MITC95 NDM: 1.56 µM
NDM-1
  IC50: 1.67 nM
[4]
  MB9798 MITC95 P. aeruginosa uM Efflux WT: 6.25 µM
  Efflux ratio: 4.00
[5]
  MB9799 MITC95 P. aeruginosa uM Efflux Mutant: 1.56 µM
VIM-2
  IC50: 3.36 nM
IMP-1
  IC50: 1.89 nM
VIM-1
  IC50: 0.89 nM

## NCC1CCN(c2ccc(S(=O)(=O)NC[C@H](O)CN)c(S(N)(=O)=O)c2-c2nnn[nH]2)CC1 [Example 34]
[1]
  CL5741 S. marcescens MITC95 IMP: 0.39 µM
[2]
  IHMA599644 K. pneumoniae MITC95 VIM: 0.39 µM
[3]
  CLB30016 E. coli MITC95 NDM: 0.39 µM
NDM-1
  IC50: 2.05 nM
[4]
  MB9798 MITC95 P. aeruginosa uM Efflux WT: 0.39 µM
  Efflux ratio: 2.00
[5]
  MB9799 MITC95 P. aeruginosa uM Efflux Mutant: 0.20 µM
VIM-2
  IC50: 3.49 nM
IMP-1
  IC50: 4.07 nM
VIM-1
  IC50: 0.18 nM

## NCCNS(=O)(=O)c1ccc(N2CCC(CN)CC2)c(-c2nnn[nH]2)c1S(N)(=O)=O [Example 35, N1-(2-aminoethyl)-4-(4-(aminomethyl)piperidin-1-yl)-3-(1H-tetrazol-5-yl)benzene-1,2-disulfonamide]
[1]
  CL5741 S. marcescens MITC95 IMP: 0.78 µM
[2]
  IHMA599644 K. pneumoniae MITC95 VIM: 3.13 µM
[3]
  CLB30016 E. coli MITC95 NDM: 0.39 µM
NDM-1
  IC50: 3.6 nM
[4]
  MB9798 MITC95 P. aeruginosa uM Efflux WT: 0.78 µM
  Efflux ratio: 1.00
[5]
  MB9799 MITC95 P. aeruginosa uM Efflux Mutant: 0.78 µM
VIM-2
  IC50: 6.69 nM
IMP-1
  IC50: 5.1 nM
VIM-1
  IC50: 0.32 nM

## C[C@H](CN)NS(=O)(=O)c1ccc(N2CCC(CN)CC2)c(-c2nnn[nH]2)c1S(N)(=O)=O [Example 36, (R)-4-(4-(aminomethyl)piperidin-1-yl)-N1-(1-aminopropan-2-yl)-3-(1H-tetrazol-5-yl)benzene-1,2-disulfonamide]
[1]
  CL5741 S. marcescens MITC95 IMP: 1.30 µM
[2]
  IHMA599644 K. pneumoniae MITC95 VIM: 1.30 µM
[3]
  CLB30016 E. coli MITC95 NDM: 0.65 µM
NDM-1
  IC50: 0.45 nM
[4]
  MB9798 MITC95 P. aeruginosa uM Efflux WT: 0.91 µM
  Efflux ratio: 1.40
[5]
  MB9799 MITC95 P. aeruginosa uM Efflux Mutant: 0.65 µM
VIM-2
  IC50: 2.6 nM
IMP-1
  IC50: 1.84 nM
VIM-1
  IC50: 0.1 nM

## NCC1CCN(c2ccc(S(=O)(=O)NC[C@@H](O)CN)c(S(N)(=O)=O)c2-c2nnn[nH]2)CC1 [Example 37, (S)-N1-(3-amino-2-hydroxypropyl)-4-(4-(aminomethyl)piperidin-1-yl)-3-(1H-tetrazol-5-yl)benzene-1,2-disulfonamide]
[1]
  CL5741 S. marcescens MITC95 IMP: 0.78 µM
[2]
  IHMA599644 K. pneumoniae MITC95 VIM: 0.78 µM
[3]
  CLB30016 E. coli MITC95 NDM: 0.39 µM
NDM-1
  IC50: 1.29 nM
[4]
  MB9798 MITC95 P. aeruginosa uM Efflux WT: 0.78 µM
  Efflux ratio: 1.00
[5]
  MB9799 MITC95 P. aeruginosa uM Efflux Mutant: 0.78 µM
VIM-2
  IC50: 2.07 nM
IMP-1
  IC50: 3.04 nM
VIM-1
  IC50: 0.11 nM
